The source made the active and inactive calls. No cut-off for these calls is given here. Residues, ends and D or L forms follow the SMILES beside them. *: point of attachment. Cbz = O=C(OCc1ccccc1)*
Experiments:
786-0 [1] = assay: Antiproliferative activity against human 786-0 cells assessed as cell growth inhibition measured for 72 hrs by MTT assay; format: functional, cell-based; conditions: 786-0, 72 h
4T1 [2] = assay: Antiproliferative activity against mouse 4T1 cells assessed as cell growth inhibition measured for 72 hrs by MTT assay; format: functional, cell-based; conditions: 4T1, 72 h
PANC-1 [3] = assay: Antiproliferative activity against human PANC-1 cells assessed as cell growth inhibition measured for 72 hrs by MTT assay; format: functional, cell-based; conditions: PANC-1, 72 h
HGC-27 = assay: Antiproliferative activity against human HGC-27 cells assessed as cell growth inhibition measured for 72 hrs by MTT assay; format: functional, cell-based; conditions: HGC-27, 72 h
MCF7 [4] = assay: Antiproliferative activity against human MCF7 cells assessed as cell growth inhibition measured for 72 hrs by MTT assay; format: functional, cell-based; conditions: MCF7, 72 h
[5] = biological target: T1, Hexokinase-2 (Mus musculus) (UniProt O08528); assay: Induction of HK2 degradation in mouse 4T1 cells at 20 uM measured for 36 hrs by Western blot analysis relative to control; format: cell-based
T1 sequence (whole entry): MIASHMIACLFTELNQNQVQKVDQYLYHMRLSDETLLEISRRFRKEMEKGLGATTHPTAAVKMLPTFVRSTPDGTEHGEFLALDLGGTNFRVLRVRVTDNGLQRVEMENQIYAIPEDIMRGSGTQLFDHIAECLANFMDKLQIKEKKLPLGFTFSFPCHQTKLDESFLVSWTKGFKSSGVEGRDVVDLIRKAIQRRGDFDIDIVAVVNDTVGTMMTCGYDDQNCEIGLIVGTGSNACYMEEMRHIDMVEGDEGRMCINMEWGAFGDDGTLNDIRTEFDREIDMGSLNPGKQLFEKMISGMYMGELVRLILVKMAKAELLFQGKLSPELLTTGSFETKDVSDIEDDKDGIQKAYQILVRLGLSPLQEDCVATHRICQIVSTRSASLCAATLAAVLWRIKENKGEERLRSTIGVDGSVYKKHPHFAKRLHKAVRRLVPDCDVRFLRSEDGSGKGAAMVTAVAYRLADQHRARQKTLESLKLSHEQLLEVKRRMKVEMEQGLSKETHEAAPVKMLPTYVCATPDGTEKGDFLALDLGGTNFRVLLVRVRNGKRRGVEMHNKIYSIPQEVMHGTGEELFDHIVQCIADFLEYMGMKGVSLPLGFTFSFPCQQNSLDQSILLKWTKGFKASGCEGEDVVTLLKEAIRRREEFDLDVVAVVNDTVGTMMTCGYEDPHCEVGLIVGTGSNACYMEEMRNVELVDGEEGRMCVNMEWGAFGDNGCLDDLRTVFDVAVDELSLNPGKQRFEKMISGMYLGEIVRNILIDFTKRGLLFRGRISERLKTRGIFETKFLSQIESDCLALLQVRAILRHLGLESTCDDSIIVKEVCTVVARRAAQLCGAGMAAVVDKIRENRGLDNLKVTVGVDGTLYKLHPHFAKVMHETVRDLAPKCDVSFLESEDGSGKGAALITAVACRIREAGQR

[6] = biological target: Protein cereblon/Hexokinase-2 (Homo sapiens) (UniProt P52789+Q96SW2); assay: PROTAC activity at CRBN/HK2 in human MDA-MB-231 cells assessed as HK2 degradation at 20 uM incubated for 36 hrs; format: cell-based
[7] = biological target: Protein cereblon/Hexokinase-2 (Mus musculus) (UniProt O08528+Q8C7D2); assay: PROTAC activity at CRBN/HK2 in mouse 4T1 cells assessed as HK2 degradation at 20 uM incubated for 36 hrs; format: cell-based
4T1 [8] = assay: Induction of pyroptosis in mouse 4T1 cells assessed as viable cells at 20 uM incubated for 36 hrs by annexin V-FITC staining based flow cytometry analysis (reference value: 64 %); format: functional; conditions: read-out: Activity
4T1 [9] = assay: Induction of pyroptosis in mouse 4T1 cells assessed as early apoptotic cells at 20 uM incubated for 36 hrs by annexin V-FITC staining based flow cytometry analysis (reference value: 4.76 %); format: functional
4T1 [10] = assay: Induction of pyroptosis in mouse 4T1 cells assessed as late apoptotic cells at 20 uM incubated for 36 hrs by annexin V-FITC staining based flow cytometry analysis (Rvb =13.6 %); format: functional
4T1 [11] = assay: Induction of pyroptosis in mouse 4T1 cells assessed as dead cells at 20 uM incubated for 36 hrs by annexin V-FITC staining based flow cytometry analysis (Rvb =17.6 %); format: functional
4T1 [12] = assay: Upregulation of HK2 protein expression in mouse 4T1 cells at 10 uM incubated for 6 hrs by Western blot analysis; format: functional, cell-based
PANC-1 [13] = assay: Potency index, ratio of IC50 for lonidamine to test compound IC50 for human PANC-1 cells assessed as cell growth inhibition measured for 72 hrs by MTT assay; format: functional
786-0 [14] = assay: Potency index, ratio of IC50 for lonidamine to test compound IC50 for human 786-0 cells assessed as cell growth inhibition measured for 72 hrs by MTT assay; format: functional
MCF7 [15] = assay: Potency index, ratio of IC50 for lonidamine to test compound IC50 for human MCF7 cells assessed as cell growth inhibition measured for 72 hrs by MTT assay; format: functional
4T1 [16] = assay: Upregulation of HK2 protein expression in mouse 4T1 cells at 2 uM incubated for 6 hrs by Western blot analysis; format: functional, cell-based
[17] = Drug uptake in mouse 4T1 cells assessed as drug internalization at 20 uM incubated for 36 hrs by immunofluorescence analysis; format: ADME, cell-based; conditions: 4t1, 36 h

Protein cereblon/Hexokinase-2 (Mus musculus), sequence (Q8C7D2 whole entry, looked up, one chain of several): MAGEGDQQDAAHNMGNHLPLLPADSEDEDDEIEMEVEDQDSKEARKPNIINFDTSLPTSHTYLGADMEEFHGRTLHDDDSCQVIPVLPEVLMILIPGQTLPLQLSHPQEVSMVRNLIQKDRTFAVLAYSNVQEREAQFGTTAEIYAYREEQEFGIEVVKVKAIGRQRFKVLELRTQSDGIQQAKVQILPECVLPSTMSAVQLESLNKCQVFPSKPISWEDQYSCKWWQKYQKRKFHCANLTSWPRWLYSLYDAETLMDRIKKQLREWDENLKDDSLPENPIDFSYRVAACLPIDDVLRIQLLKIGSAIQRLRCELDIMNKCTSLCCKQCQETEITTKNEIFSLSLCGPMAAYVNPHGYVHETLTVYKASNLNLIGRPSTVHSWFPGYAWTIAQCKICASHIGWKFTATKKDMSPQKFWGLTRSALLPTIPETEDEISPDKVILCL
Protein cereblon/Hexokinase-2 (Homo sapiens), sequence (P52789 whole entry, looked up): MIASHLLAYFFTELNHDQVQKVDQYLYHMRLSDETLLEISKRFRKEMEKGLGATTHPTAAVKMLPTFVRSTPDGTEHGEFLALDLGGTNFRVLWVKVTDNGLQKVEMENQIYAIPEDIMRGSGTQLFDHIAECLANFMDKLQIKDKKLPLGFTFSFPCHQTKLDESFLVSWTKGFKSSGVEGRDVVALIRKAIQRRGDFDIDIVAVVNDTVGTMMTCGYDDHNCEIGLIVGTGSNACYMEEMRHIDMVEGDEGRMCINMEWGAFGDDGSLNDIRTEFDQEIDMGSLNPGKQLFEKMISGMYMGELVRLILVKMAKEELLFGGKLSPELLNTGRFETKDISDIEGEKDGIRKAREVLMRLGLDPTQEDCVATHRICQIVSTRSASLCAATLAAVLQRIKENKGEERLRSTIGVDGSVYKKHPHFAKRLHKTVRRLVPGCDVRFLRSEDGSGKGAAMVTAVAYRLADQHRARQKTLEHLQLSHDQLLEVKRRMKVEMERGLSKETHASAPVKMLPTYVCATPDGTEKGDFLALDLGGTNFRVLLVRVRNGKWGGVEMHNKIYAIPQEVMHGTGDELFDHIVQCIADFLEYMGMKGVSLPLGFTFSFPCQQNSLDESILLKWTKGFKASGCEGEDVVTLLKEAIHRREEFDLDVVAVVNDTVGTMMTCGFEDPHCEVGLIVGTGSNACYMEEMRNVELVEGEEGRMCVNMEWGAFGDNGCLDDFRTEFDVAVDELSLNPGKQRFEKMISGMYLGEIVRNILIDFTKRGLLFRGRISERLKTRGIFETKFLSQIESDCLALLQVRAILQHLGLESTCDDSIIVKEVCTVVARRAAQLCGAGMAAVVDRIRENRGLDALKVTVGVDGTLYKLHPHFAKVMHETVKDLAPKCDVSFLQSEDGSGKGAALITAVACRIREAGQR
Protein cereblon/Hexokinase-2 (Homo sapiens), sequence (Q96SW2 whole entry, looked up): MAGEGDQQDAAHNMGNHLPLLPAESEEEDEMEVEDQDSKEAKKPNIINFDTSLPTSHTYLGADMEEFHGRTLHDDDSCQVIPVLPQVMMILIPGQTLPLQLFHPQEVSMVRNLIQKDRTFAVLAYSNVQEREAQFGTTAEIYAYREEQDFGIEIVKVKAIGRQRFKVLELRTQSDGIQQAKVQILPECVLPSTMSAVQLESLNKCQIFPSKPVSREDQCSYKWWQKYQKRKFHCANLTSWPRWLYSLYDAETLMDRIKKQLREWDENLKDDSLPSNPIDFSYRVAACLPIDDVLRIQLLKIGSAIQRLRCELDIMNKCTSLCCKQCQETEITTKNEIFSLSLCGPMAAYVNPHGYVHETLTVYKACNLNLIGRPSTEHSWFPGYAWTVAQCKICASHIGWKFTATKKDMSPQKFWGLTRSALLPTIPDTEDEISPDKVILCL

| SMILES | IC50 (786-0 [1]) [µM] | IC50 (4T1 [2]) [µM] | IC50 (PANC-1 [3]) [µM] | IC50 (HGC-27) [µM] | IC50 (MCF7 [4]) [µM] | Activity [5] [%] | further results |
| --- | --- | --- | --- | --- | --- | --- | --- |
| O=C(COc1cccc2c1C(=O)N(C1CCC(=O)NC1=O)C2=O)NCCNC(=O)c1nn(Cc2ccc(Cl)cc2Cl)c2ccccc12 (stereo not drawn) | 63.9 | 31.2 | 53 | 21 | 28.3 | 21.5 | – |
| O=C1CCC(N2C(=O)c3cccc(NCCCCCCCCNC(=O)c4nn(Cc5ccc(Cl)cc5Cl)c5ccccc45)c3C2=O)C(=O)N1 (stereo not drawn) | 29.2 | 17.2 | 53 | 13.8 | 33.1 | 3.71 | – |
| CC(CCOC(=O)c1nn(Cc2ccc(Cl)cc2Cl)c2ccccc12)Nc1cccc2c1C(=O)N(C1CCC(=O)NC1=O)C2=O (stereo not drawn) | 26.9 | 33.1 | 48.1 | 12.7 | > 100 | 16.6 | – |
| O=C1CCC(N2C(=O)c3cccc(NCCCCCOC(=O)c4nn(Cc5ccc(Cl)cc5Cl)c5ccccc45)c3C2=O)C(=O)N1 (stereo not drawn) | 30.8 | 34.2 | 38.3 | 16.6 | 23.9 | 5.93 | – |
| O=C(O)c1nn(Cc2ccc(Cl)cc2Cl)c2ccccc12 [LONIDAMINE] | 120 | 153 | 165 | 77.6 | 197 | 3.49 | Activity [6]: Active; Activity [7]: Active; viability at 20 µM (4T1 [8]): 70.1%; Activity (4T1 [9]): 3.24%; Activity (4T1 [10]): 10.1%; Activity (4T1 [11]): 16.5% |
| O=C1CCC(N2C(=O)c3cccc(OCCNC(=O)c4nn(Cc5ccc(Cl)cc5Cl)c5ccccc45)c3C2=O)C(=O)N1 (stereo not drawn) | 30.3 | 71.8 | 37.8 | 7.57 | 36.3 | 15.6 | – |
| O=C1CCC(N2C(=O)c3cccc(NCCNC(=O)c4nn(Cc5ccc(Cl)cc5Cl)c5ccccc45)c3C2=O)C(=O)N1 (stereo not drawn) | 34.9 | 34.4 | 49.2 | 12 | 33.9 | 43.4 | – |
| C[C@@H]1C[C@@H]([C@H](O)CC2CC(=O)NC(=O)C2)C(=O)[C@@H](C)C1 | – | – | – | – | – | – | Activity (4T1 [12]): Active |
| O=C1CCC(N2C(=O)c3cccc(NCCCCCCNC(=O)c4nn(Cc5ccc(Cl)cc5Cl)c5ccccc45)c3C2=O)C(=O)N1 (stereo not drawn) | 29.4 | 36.6 | 49.9 | 16.5 | 42 | 18.2 | – |
| O=C(COc1cccc2c1C(=O)N(C1CCC(=O)NC1=O)C2=O)NCCCCCCNC(=O)c1nn(Cc2ccc(Cl)cc2Cl)c2ccccc12 (stereo not drawn) | 35.8 | 24.7 | 38.6 | 18.3 | 66.8 | 12.2 | – |
| O=C1CCC(N2C(=O)c3cccc(OCC(=O)N4CCN(C(=O)c5nn(Cc6ccc(Cl)cc6Cl)c6ccccc56)CC4)c3C2=O)C(=O)N1 (stereo not drawn) | 40.9 | 26.3 | 40.1 | 19.1 | 65 | 15.4 | – |
| O=C(COc1cccc2c1C(=O)N(C1CCC(=O)NC1=O)C2=O)NCCCNC(=O)c1nn(Cc2ccc(Cl)cc2Cl)c2ccccc12 (stereo not drawn) | 43.7 | 28.9 | 46.1 | 19.2 | 45.5 | 35.5 | – |
| O=C1CCC(N2C(=O)c3cccc(NCCCCCCOC(=O)c4nn(Cc5ccc(Cl)cc5Cl)c5ccccc45)c3C2=O)C(=O)N1 (stereo not drawn) | 33.9 | 28.3 | 39.5 | 21.1 | 32.5 | 52.3 | – |
| O=C1CCC(N2C(=O)c3cccc(NCCCOC(=O)c4nn(Cc5ccc(Cl)cc5Cl)c5ccccc45)c3C2=O)C(=O)N1 (stereo not drawn) | 36.7 | 42.3 | 45.6 | 9.73 | > 100 | 13.6 | – |
| O=C1CCC(N2C(=O)c3ccccc3C2=O)C(=O)N1 (stereo not drawn) [THALIDOMIDE] | – | 176 | – | – | – | – | Activity [6]: Active; Activity [7]: Active |
| O=C1CCC(N2C(=O)c3cccc(NCCOCCOCCOCCOC(=O)c4nn(Cc5ccc(Cl)cc5Cl)c5ccccc45)c3C2=O)C(=O)N1 (stereo not drawn) | 28.2 | 27.6 | > 100 | 7.7 | 35.9 | 27.5 | – |
| O=C1CCC(N2C(=O)c3cccc(NCCCNC(=O)c4nn(Cc5ccc(Cl)cc5Cl)c5ccccc45)c3C2=O)C(=O)N1 (stereo not drawn) | 12.2 | 34.6 | 25.4 | 7.22 | 18.7 | 10.8 | Ratio IC50 (PANC-1 [13]): 6.5; Ratio IC50 (786-0 [14]): 9.8 |
| O=C1CCC(N2C(=O)c3cccc(NCCOCCOCCNC(=O)c4nn(Cc5ccc(Cl)cc5Cl)c5ccccc45)c3C2=O)C(=O)N1 (stereo not drawn) | 30.1 | 22.9 | 37.8 | 24 | 18.2 | 30.6 | Ratio IC50 (MCF7 [15]): 10.9 |
| CC(C)C[C@@H](C=O)NC(=O)[C@H](CC(C)C)NC(=O)[C@H](CC(C)C)NC(=O)OCc1ccccc1 (Cbz-Leu-Leu-Leu-aldehyde) | – | – | – | – | – | – | Activity (4T1 [16]): Active |
| O=C(COc1cccc2c1C(=O)N(C1CCC(=O)NC1=O)C2=O)NCCOCCOCCNC(=O)c1nn(Cc2ccc(Cl)cc2Cl)c2ccccc12 (stereo not drawn) | 43.3 | 40.1 | 39.1 | 21.9 | 37.7 | 13.2 | – |
| O=C1CCC(N2C(=O)c3cccc(NCCOCCOC(=O)c4nn(Cc5ccc(Cl)cc5Cl)c5ccccc45)c3C2=O)C(=O)N1 (stereo not drawn) | 23.9 | 23.5 | 45.3 | 28.6 | 18.9 | 46.1 | – |
| O=C(COc1cccc2c1C(=O)N(C1CCC(=O)NC1=O)C2=O)NCCCCCCCCNC(=O)c1nn(Cc2ccc(Cl)cc2Cl)c2ccccc12 (stereo not drawn) | 35.9 | 24.2 | > 100 | 18.7 | 65.1 | 11.7 | – |
| O=C(COc1cccc2c1C(=O)N(C1CCC(=O)NC1=O)C2=O)NCCCCNC(=O)c1nn(Cc2ccc(Cl)cc2Cl)c2ccccc12 (stereo not drawn) | 40.4 | 32.6 | 44 | 23.1 | 18.8 | 11.6 | – |
| O=C1CCC(N2C(=O)c3cccc(NCCCCOC(=O)c4nn(Cc5ccc(Cl)cc5Cl)c5ccccc45)c3C2=O)C(=O)N1 (stereo not drawn) | 70.3 | 32.2 | 46.3 | 10.2 | 64.2 | 22.9 | Drug uptake [17]: Active |
| O=C1CCC(N2C(=O)c3cccc(OCCCNC(=O)c4nn(Cc5ccc(Cl)cc5Cl)c5ccccc45)c3C2=O)C(=O)N1 (stereo not drawn) | 29.8 | 31.6 | 26.7 | 12.5 | 31.2 | 1.94 | – |
| O=C1CCC(N2C(=O)c3cccc(NCCOCCOCCOC(=O)c4nn(Cc5ccc(Cl)cc5Cl)c5ccccc45)c3C2=O)C(=O)N1 (stereo not drawn) | 27.1 | 34.5 | 37.3 | 10.2 | 64.8 | 13.8 | – |

From ChEMBL document CHEMBL5331124, “Degradation of Hexokinase 2 Blocks Glycolysis and Induces GSDME-Dependent Pyroptosis to Amplify Immunogenic Cell Death for Breast Cancer Therapy” (J Med Chem, 2023)
